# Data taken from article PMC7830897 (Viruses, 2021).
# pEC50: −log10 of the molar value. Where “and” joins values, the source holds several entries; their conditions need not be identical. Equal values may be shown once. Entries after “also recorded” stand apart in the source; their conditions may differ. Read-outs that look alike come from different tables or passages of the source.
# Tests used:
# [1] = design: method as in earlier work; conditions: CD-1 mice, cited from earlier work
# [2] = Single-dose plasma pharmacokinetics in male cynomolgus monkeys; conditions: for AUCtotal: mean n = 3, extrapolated; for t1/2: mean n = 3, terminal
# HBV [3] = assay: Antiviral efficacy in nude mice bearing HBV transfected AD38 xenografts; assay type: in vivo; conditions: for difference in T/V ratios (HBV titers) versus no-drug / placebo control group: day 45
# [4] = humanized mice, 60 mg/kg per day PO for 10 weeks; cited from earlier work
# HBV [5] = tested on: HBV; design: method as in earlier work; conditions: 2% FBS, cited from earlier work
# [6] = cynomolgus monkey plasma (1 donor), 10 µM
# [7] = 2% FBS (used to measure potency in vitro), 10 µM
# [8] = Centrifree ultrafiltration device
# human cardiomyocytes = assay: Human cardiomyocyte function (video-based contractility analysis); assay type: cell-based; conditions: 50 µM
# [9] = cited from earlier work
# [10] = human, 10 µM
# [11] = 1 mg/kg IV infusion, mean n = 3
# [12] = eight of the ten mice, GLP-26 55 mg/kg 3 times per week via feeding tube, to day 45
compound,measurement,setting,value
C#CCNC(=O)C(=O)c1c(C)c(C(=O)Nc2ccc(F)c(F)c2)n(C)c1C [GLP-26],terminal t1/2,[1]; IV 15 mg/kg,1.6 h
same,PO bioavailability,"[1]; PO 30 mg/kg, IV 15 mg/kg",61%
same,terminal t1/2,[1]; PO 30 mg/kg,> 6 h
same,AUMC,[2]; [11],1058 ng·mL^−1·h^2
same,CL,[2]; [11],1.106 L·h/kg
same,Cmax,[2]; [11],2513 ng/mL
same,MRT,[2]; [11],1.2 h
same,Tmax,[2]; [11],0.40 h
same,Vss,[2]; [11],1.065 Lkg^−1
same,AUCtotal,[2]; 1 mg/kg IV infusion,986.6 ± 316.5 ng·h/mL and 986.6 ng·h/mL
same,t1/2,[2]; 1 mg/kg IV infusion,0.77 h
same,Cmax relative to in vitro EC50 versus HBV,[2]; 5 mg/kg PO,~ 30 times
same,AUMC,"[2]; 5 mg/kg PO, mean n = 3",7435 ng·mL^−1·h^2
same,Cmax,"[2]; 5 mg/kg PO, mean n = 3",380.7 ng/mL
same,MRT,"[2]; 5 mg/kg PO, mean n = 3",4.19 h
same,Tmax,"[2]; 5 mg/kg PO, mean n = 3",0.67 h
same,AUCtotal,[2]; 5 mg/kg PO,1660 ng·h/mL and 1660 ± 530 ng·h/mL
same,t1/2,[2]; 5 mg/kg PO,2.4 h and 2.44 h
same,signs of toxicity in monkeys,[2]; single IV (1 mg/kg) or PO (5 mg/kg) doses,appeared healthy prior to dosing and throughout the duration of the study; also recorded: No signs of toxicity were observed
same,difference in T/V ratios (HBV titers) versus no-drug / placebo control group,HBV [3],2.5 log10
same,mean rebound in T/V,HBV [3]; [12],13.8 fold
same,mean rebound in T/V (log10),HBV [3]; [12],1.14 log10
same,tolerability,[4],safely administered
same,in vitro EC50 versus HBV,HBV [5]; converted from nM,~ 1.1 ng/mL
same,in vitro EC90 versus HBV,HBV [5]; converted from nM,~ 11 ng/mL
same,pEC50,HBV [5]; read-out: in vitro EC50 versus HBV,8.52
same,EC90,HBV [5]; read-out: in vitro EC90 versus HBV,30 nM
same,percent bound in plasma,[6],86.7%
same,percent bound in 2% FBS,[7],17.9%
same,non-specific adsorption,[8],approximately 2.6%
COc1nc(N)nc2c1ncn2[C@@H]1O[C@H](COP(=O)(N[C@@H](C)C(=O)OCC(C)(C)C)Oc2cccc3ccccc23)[C@@H](O)[C@@]1(C)O (stereo partly drawn) [BMS-986094],resumption of cardiomyocyte beating,human cardiomyocytes,resumed after 8 h with an unstable rhythm
same,time until cardiomyocyte beating stopped,human cardiomyocytes,≤ 2 h
Nc1nc(=O)n([C@@H]2CS[C@H](CO)O2)cc1F [emtricitabine],percent bound (reported),[9],< 4%
same,percent bound in plasma,[10],0.8%
"C=C1[C@H](CO)[C@@H](O)C[C@@H]1n1cnc2c(=O)[nH]c(N)nc21 [ETV, entecavir, reference compound]",difference in T/V ratios (HBV titers) versus no-drug / placebo control group,HBV [3],3 log10
Cc1cccc(C)c1OCC(=O)N[C@@H](Cc1ccccc1)[C@@H](O)C[C@H](Cc1ccccc1)NC(=O)[C@H](C(C)C)N1CCCNC1=O [lopinavir],percent bound in plasma,[10],97.9%
